Test results reported in patent US20050203065A1, “Method of treating ischemia reperfusion injury using adenosine receptor antagonists” (priority 2002, published 2005).

Key:
[1] = tested on: open-chest, barbital-anesthetized dogs; assay: Protocol II (preconditioning): four 5-minute occlusion/reperfusion cycles before 60-minute occlusion and 3 hours reperfusion in dogs; format: in vivo, dog
Description: Preconditioning was elicited by four 5-minute occlusion/5-minute reperfusion cycles produced 10 minutes before the 60-minute occlusion.

[2] = molecular target: T1, recombinant canine A3 adenosine receptors (Canis lupus familiaris, UniProt Q28309); assay: Radioligand competition binding, canine A3 receptor (R-PIA), transfected HEK 293 membranes; conditions: mean ± SEM, n = 3
T1 construct: expressed in transfected cells
T1 sequence (Q28309 1-314): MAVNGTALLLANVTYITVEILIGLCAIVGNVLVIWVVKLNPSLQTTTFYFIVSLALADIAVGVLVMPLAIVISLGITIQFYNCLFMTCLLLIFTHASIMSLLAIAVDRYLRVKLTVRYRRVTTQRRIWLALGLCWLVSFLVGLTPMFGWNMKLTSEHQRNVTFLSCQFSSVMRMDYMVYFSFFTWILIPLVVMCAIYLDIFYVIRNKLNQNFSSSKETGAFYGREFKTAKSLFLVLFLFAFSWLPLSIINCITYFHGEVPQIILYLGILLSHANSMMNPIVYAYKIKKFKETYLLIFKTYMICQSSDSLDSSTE
Description: (§1) Membranes (40-70 μg membrane protein), radioligands, and varying concentrations of competing ligands were incubated in triplicate in 0.1 ml buffer HE plus 2 units/mL adenosine deaminase for 2.5 hours at 21° C. The radioligands used for competitive binding assays were: [^3H]-8-cyclopentyl-1,3-dipropyxanthine ([^3H]-DPCPX) (NEN, Boston, Mass.) for A1 and A2b adenosine receptors, [^3H]-4-(2-[7-amino-2-(furyl)(1,2,4)triazole(2,3-a)(1,3,5)triazin-5-ylaminoethyly)phenol ([^3H] ZM241385) for A2a adenosine receptors (Tocris, Bristol, UK), and [^125Iodine]-labeled N6-(4-aminobenzyl)-9-(5-(methylcarbonyl)-β-D-ribofuranosyl) adenine ([^125I]-AB-MECA) or [^3H]-R-N^6-phenylisopropyladenosine (H^3R]-R-PIA) for A3 adenosine receptors (both from NEN, Boston, Mass.). Nonspecific binding was measured in the presence of 10 μM 5′N ethylcarboxamidoadenosine (NECA, from RBI-Sigma, Natick, Mass.) for A1 and A2b receptors, or 10 μM xanthine amino congener (XAC, from RBI-Sigma, Natick, Mass.) for A2a receptors. Binding assays were terminated by filtration over Whatman GF/C glass fiber filters using a BRANDEL cell harvester (Gaithersburg, Md.). The-filters were rinsed three times with 3-4 mL ice-cold 10 mM Tris-HCl, pH 7.4 and 5 mM magnesium chloride (MgCl2) at 4° C., and were counted in a Wallac β-counter (Perkin Elmer, Boston, Mass.).

[3] = molecular target: T2, human A2B adenosine receptors (Homo sapiens, UniProt P29275); assay: Radioligand competitive binding, human A2b receptor; set-up: expressed in transfected cells; host or cells: HEK-293; conditions: HEK 293 membranes
T2 sequence (P29275 1-332): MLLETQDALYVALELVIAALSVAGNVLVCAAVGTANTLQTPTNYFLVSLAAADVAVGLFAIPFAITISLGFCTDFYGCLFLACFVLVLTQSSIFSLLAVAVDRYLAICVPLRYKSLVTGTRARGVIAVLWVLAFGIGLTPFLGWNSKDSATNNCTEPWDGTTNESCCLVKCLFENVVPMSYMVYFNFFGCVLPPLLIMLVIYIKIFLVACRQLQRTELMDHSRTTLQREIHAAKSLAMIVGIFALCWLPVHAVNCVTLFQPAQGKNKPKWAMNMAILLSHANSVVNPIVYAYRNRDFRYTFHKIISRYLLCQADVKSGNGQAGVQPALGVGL
Description: Binding assays were terminated by filtration.
as §1, with “Md.).” for “Md.). The-filters were rinsed three times with 3-4 mL ice-cold 10 mM Tris-HCl, pH 7.4 and 5 mM magnesium chloride (MgCl2) at 4° C., and were counted in a Wallac β-counter (Perkin Elmer, Boston, Mass.).”

With CCCn1c(=O)c2[nH]c(C34CCC(CCC(=O)O)(CC3)CC4)nc2n(CCC)c1=O [BG 9928, 3-[4-(2,6-dioxo-1,3-dipropyl-2,3,6,7-tetrahydro-1H-purin-8-yl)-bicyclo[2.2.2]oct-1-yl]-propionic acid] the “Addition to the protective effect of ischemic preconditioning” value ([1]; Protocol II) was “added to the protective effect”, the “Relationship between infarct size and collateral blood flow compared to preconditioned control” value ([1]; Protocol II (preconditioning)) was “shifted downward further” and the “Effect on the protective effects of ischemic preconditioning” value ([1]; Protocol II, 1 mg/kg i.v. bolus + 10 μg/kg/min) was “did not block”. The Ki [2] was 37.7 µM and the Ki [3] was 0.0885 ± 0.021 µM.
